Series [1] deals with T1, E. coli gyrase (Escherichia coli, UniProt P0AES4+P0AES6).
T1 construct: purchased Lucent, Ltd., Leicester, UK
The experiment in a line: DNA gyrase supercoiling inhibition assay. It counts as biochemical. The procedure:
The effects of test agents on the activity of DNA gyrase was determined by the supercoiling inhibition assay, following reaction conditions recommended by the enzyme supplier (Lucent, Ltd., Leicester, UK), as follows. Reactions were performed in buffer G (35 mM Tris-HCL (pH 7.5), 24 mM KCl, 4 mM MgCl2, 2 mM DTT, 1.8 mM spermidine, 1 mM ATP, 0.1 mg/mL bovine serum albumin). 0.25 μg of relaxed plasmid pBR322 (Lucent, Ltd., Leicester, UK) was reacted with 1 U E. coli gyrase (Lucent, Ltd., Leicester, UK), in the absence or presence of drugs, for 30 minutes at 37° C. Reactions were stopped by the addition of SDS and proteinase K to respective final concentrations of 1% and 0.5 mg/mL. After an additional 30 minutes at 37° C., one-tenth volume of 10×loading buffer (0.3% bromophenol blue, 16% Ficoll, 10 mM Na2HPO4) was added, and reactions were loaded onto agarose gels and electrophoresed as described above for intercalation assays. The concentration of drug inhibiting 50% of the supercoiling activity of DNA gyrase is given as an IC50 and recorded in Table 2.

Series [2] concerns the target relaxed plasmid pBR322. Nature of the series: DNA intercalation/binding assay. The note with it: pBR322 with calf thymus topoisomerase I, 30 minutes at 37° C.; read-out: Drug Concentration causing 50% Intercalation of DNA. The procedure: Compounds of the present invention were evaluated for their ability to intercalate/bind to DNA, using the procedure described in Nucleic Acids Research, 1987;15(15):6713. Specifically, 0.2 μg of relaxed plasmid pBR322 (Lucent, Ltd., Leicester, UK) was treated with 2 U of calf thymus topoisomerase I (Gibco/BRL, Gaithersburg, Md.) in buffer I (10 mM Tris-HCl (Ph 7.5), 50 mM KCl, 5 mM MgCl2, 1 mM Na2EDTA, 15 μg/mL bovine serum albumin) in the presence or absence of test compounds. Reaction were incubated for 30 minutes at 37° C.; volumes were typically 30 μL. Reactions were terminated by the addition of sodium dodecylsulfate (SDS) to 1% and proteinase K to 0.5 mg/mL final concentrations. After an additional 30 minutes at 37° C., one-tenth volume of 10×concentrated loading buffer (0.3% bromophenol blue, 16% Ficoll, 10 mM Na2HPO4) was added, and samples were loaded onto horizontal 0.8% agarose gels prepared in TAE buffer. Electrophoresis was at 22 V for 14 hours. Gels were then stained by soaking for 1.5 hours in deionized water containing 0.2 μg/mL of ethidium bromide, followed by destaining in deionized water for an additional 1.5 hours. Gels were examined and photographed following exposure to UV light. The concentration of the drug which induced a 50% change in the DNA by intercalation is represented by an intercalation IC50 and is recorded in Table 4.

Series [3] addresses T2, E. coli topoisomerase IV (Escherichia coli, UniProt P0AFI2+P20083).
T2 construct: made in house; host or cells: E. coli overexpressing strains
The experiment in a line: Topoisomerase IV k-DNA decatenation assay. It counts as biochemical. How it is done: Topoisomerase IV was purified from E. coli overexpressing strains and the compounds were assayed according to literature conditions (Journal of Biological Chemistry, 1993;268(32):24481). The k-DNA decatenation assay was used. Briefly, reactions were performed in buffer R (40 mM Tris-HCl (pH 7.5), 6 mM MgCl2, 10 mM DTT, 100 mM potassium glutamate, 40 μM ATP, 50 μg/mL bovine serum albumin, 10 mM NaCl). 0.2 μg of kinetoplast DNA (k-DNA; TopoGen, Columbus, Ohio) was incubated with 5 ng of E. coli topoisomerase IV in the presence or absence of test compounds for 10 minutes at 37° C. Subsequently, one-tenth volume of 10×gel loading buffer (0.3% bromophenol blue, 16% Ficoll, 10 mM Na2HPO4) was added, and samples were loaded onto horizontal 0.8% agarose gels prepared with TBE buffer and containing 0.05 μg/mL of ethidium bromide. Electrophoresis was at 70 V for 2 to 4 hours. Gels were then examined by exposure to UV light. The concentration of drug inhibiting 50% of the decantenating activity of Topoisomerase IV is given as an IC50 and recorded in Table 2.

Series [4] concerns E. coli MC4100. The experiment in a line: Antibacterial assay, standard microtitration, MIC. The series is classed as cell-based. The following applies: Escherichia coli, Gram negative, read-out: Minimum Inhibitory Concentrations, E. coli MC4100. The gist of the method:
(§1)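 Compounds were screened against a panel of Gram-negative and Gram-positive bacteria by conventional microtitration; the minimum inhibitory concentration was recorded as the read-out.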

For series [5], the system named is S. pyogenes C203. The experiment in a line: Antibacterial assay, standard microtitration, MIC. The following applies: Streptococcus pyogenes, Gram positive, read-out: Minimum Inhibitory Concentrations, S. pyogenes C203. It counts as cell-based. The gist of the method:
as §1

Series [6] deals with S. aureus 29213. The experiment in a line: Antibacterial assay, standard microtitration, MIC. The series is classed as cell-based. The note with it: Staphylococcus aureus, Gram positive, read-out: Minimum Inhibitory Concentrations, S. aureus 29213. The gist of the method:
as §1

Series [7] relates to B. subtilis RB1. Nature of the series: Antibacterial assay, standard microtitration, MIC. The following applies: Bacillus subtilis, Gram positive, read-out: Minimum Inhibitory Concentrations, B. subtilis RB1. The series is classed as cell-based. The gist of the method: as §1
Series [8] concerns E. coli B90. Nature of the series: Antibacterial assay, standard microtitration, MIC. The series is classed as cell-based. The note with it: Escherichia coli, Gram negative, read-out: Minimum Inhibitory Concentrations, E. coli B90. The gist of the method:
as §1

A short description of series [9]: Mammalian cell cytotoxicity, colony formation. The following applies: Chinese hamster, drug for 3 hours at 37° C., colony formation after 5 days, read-out: 50% Cytotoxic Conc. in CHO cells. It counts as cell-based. How it is done:
Mammalian Cell Cytotoxicity
The cells were grown overnight and treated with drug for 3 hours at 37° C., at which time the compound containing media was replaced with fresh media. The cells were then incubated for 5 days and examined for colony formation.

The subject of series [10] is E. coli To1C. Nature of the series: Antibacterial assay, standard microtitration, MIC. The series is classed as cell-based. The following applies: Escherichia coli, TO1C, read-out: Minimum Inhibitory Concentrations, E. coli To1C. The gist of the method: as §1
[11] abbreviates: supercoiling of relaxed pBR322, 30 minutes at 37° C., read-out: DNA Gyrase IC50.
[12] abbreviates: k-DNA decatenation, 10 minutes at 37° C., read-out: Top IV IC50.

Converted amounts (≈) assume the structure as drawn. Like-named read-outs stand apart in the source and are kept apart here. Some results are limits rather than exact numbers.

T1 sequence (P0AES4 whole entry, one chain of several): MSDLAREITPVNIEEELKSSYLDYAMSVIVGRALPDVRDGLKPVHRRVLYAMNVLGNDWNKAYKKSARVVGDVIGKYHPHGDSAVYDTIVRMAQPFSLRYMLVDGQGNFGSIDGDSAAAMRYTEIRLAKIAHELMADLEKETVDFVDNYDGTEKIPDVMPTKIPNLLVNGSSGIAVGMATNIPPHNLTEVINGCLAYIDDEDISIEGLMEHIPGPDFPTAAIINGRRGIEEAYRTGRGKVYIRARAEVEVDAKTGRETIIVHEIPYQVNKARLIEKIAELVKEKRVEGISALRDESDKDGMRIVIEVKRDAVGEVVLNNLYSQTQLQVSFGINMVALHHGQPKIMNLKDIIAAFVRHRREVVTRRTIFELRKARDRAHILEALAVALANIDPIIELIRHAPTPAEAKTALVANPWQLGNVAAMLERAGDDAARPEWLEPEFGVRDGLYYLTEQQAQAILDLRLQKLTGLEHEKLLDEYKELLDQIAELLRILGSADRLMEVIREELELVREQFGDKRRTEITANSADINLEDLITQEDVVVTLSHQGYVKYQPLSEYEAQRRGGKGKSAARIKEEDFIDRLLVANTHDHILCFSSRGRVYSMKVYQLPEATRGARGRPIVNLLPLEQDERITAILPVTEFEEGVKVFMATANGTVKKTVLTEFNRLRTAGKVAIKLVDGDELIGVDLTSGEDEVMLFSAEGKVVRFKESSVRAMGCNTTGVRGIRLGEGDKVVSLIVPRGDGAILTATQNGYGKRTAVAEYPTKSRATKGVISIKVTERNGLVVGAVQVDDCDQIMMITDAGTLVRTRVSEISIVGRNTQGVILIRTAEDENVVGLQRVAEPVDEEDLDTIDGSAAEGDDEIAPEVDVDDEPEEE
T2 sequence (P0AFI2 whole entry): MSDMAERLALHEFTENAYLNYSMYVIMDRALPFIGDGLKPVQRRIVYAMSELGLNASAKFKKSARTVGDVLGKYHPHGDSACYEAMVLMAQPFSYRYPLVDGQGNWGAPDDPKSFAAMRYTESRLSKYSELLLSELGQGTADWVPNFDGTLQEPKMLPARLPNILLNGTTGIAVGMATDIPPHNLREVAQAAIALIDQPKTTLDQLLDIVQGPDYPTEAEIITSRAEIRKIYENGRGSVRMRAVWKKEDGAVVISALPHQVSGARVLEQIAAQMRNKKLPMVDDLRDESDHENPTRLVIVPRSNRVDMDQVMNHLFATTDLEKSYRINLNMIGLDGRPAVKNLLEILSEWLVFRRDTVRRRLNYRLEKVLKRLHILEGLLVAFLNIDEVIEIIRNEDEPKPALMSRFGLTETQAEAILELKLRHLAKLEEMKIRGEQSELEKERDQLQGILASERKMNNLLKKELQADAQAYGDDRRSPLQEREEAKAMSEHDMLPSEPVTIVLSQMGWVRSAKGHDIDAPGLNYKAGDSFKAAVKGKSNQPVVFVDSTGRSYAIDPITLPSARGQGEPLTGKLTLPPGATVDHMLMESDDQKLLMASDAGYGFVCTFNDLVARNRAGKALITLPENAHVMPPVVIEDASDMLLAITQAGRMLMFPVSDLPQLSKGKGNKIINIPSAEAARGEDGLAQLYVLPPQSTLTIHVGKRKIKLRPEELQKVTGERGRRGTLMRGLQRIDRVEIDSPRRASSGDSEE
T2 sequence (P20083 whole entry): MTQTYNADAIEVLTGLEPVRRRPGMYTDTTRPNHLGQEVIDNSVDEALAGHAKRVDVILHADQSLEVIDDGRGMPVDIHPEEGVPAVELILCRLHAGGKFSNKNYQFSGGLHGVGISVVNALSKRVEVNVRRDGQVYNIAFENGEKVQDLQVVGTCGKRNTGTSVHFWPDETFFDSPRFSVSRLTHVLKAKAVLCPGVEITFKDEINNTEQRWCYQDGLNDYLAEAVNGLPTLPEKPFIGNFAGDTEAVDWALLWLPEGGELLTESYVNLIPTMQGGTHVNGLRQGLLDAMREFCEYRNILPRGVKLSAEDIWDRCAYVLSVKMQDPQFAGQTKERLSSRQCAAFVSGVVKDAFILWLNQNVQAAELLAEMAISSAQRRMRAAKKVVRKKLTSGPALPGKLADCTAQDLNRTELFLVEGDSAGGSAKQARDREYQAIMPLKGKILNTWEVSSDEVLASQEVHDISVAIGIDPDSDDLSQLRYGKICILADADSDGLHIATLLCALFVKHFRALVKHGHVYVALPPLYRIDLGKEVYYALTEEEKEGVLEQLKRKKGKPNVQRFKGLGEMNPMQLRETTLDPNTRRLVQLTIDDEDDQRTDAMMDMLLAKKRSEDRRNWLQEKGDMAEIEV

With `Nc1cc2c3c(cccc3c1)C(=O)N(O)C2=O` [Example 8, 5-Amino-2-hydroxy-benzo[de]isoquinoline-1,3-dione], the figures for the IC50 in series [1] (setting [11]), in [2] and in series [3] (setting [12]) were 7 µM, > 100 µM and 65 µM, respectively. For the same molecule, the MIC was 8 µg/mL (≈ 35.1 µM) in series [4]; > 64 µg/mL in [5]; 32 µg/mL (≈ 140 µM) in series [6]; 8 µg/mL (≈ 35.1 µM) in series [7]; 4 µg/mL (≈ 17.5 µM) in [8]. Further, the IC50 at 3 h in series [9] (Chinese hamster cells) is > 500 µM.
As for `COc1cc2c3c(cccc3c1)C(=O)N(O)C2=O` [Example 13, 2-Hydroxy-5-methoxy-benzo[de]isoquinoline-1,3-dione], the IC50 in series [1] (setting [11]) is 11 µM; in series [2], > 100 µM; in series [3] (setting [12]), 29 µM. The MIC is 0.5 µg/mL (≈ 2.06 µM) in series [4]; > 64 µg/mL in series [5]; 8 µg/mL (≈ 32.9 µM) in series [6]; 1 µg/mL (≈ 4.11 µM) in [7]; 0.13 µg/mL (≈ 0.534 µM) in series [8]. For the same molecule, the IC50 at 3 h in series [9] (Chinese hamster cells) was > 250 µM.
For the molecule `Nc1cc2c3c(cccc3c1Cl)C(=O)N(O)C2=O` [Example 28, 5-Amino-6-chloro-2-hydroxy-benzo[de]isoquinoline-1,3-dione], the IC50 in series [1] (setting [11]) was 20 µM; in series [2], > 100 µM; in series [3] (setting [12]), 7 µM. Besides, the MIC in series [4] was 16 µg/mL (≈ 60.9 µM); in series [5], > 64 µg/mL; in series [6] it was 4 µg/mL (≈ 15.2 µM); in [10], 1 µg/mL (≈ 3.81 µM); in [7], 4 µg/mL (≈ 15.2 µM); in [8], 1 µg/mL (≈ 3.81 µM). For the same molecule, in series [9] (Chinese hamster cells), the IC50 at 3 h is > 250 µM.
For `O=C1c2cc([N+](=O)[O-])cc3cc([N+](=O)[O-])cc(c23)C(=O)N1O` [Example 42, 2-Hydroxy-5,8-dinitro-benzo[de]isoquinoline-1,3-dione], the IC50 in series [1] is 20 µM; in [2], > 100 µM; in series [3], 20 µM. Further, the MIC came to 4 µg/mL (≈ 13.2 µM) in series [4]; 32 µg/mL (≈ 106 µM) in series [5]; 8 µg/mL (≈ 26.4 µM) in series [6]; 16 µg/mL (≈ 52.8 µM) in series [7]; 1 µg/mL (≈ 3.3 µM) in series [8]. Besides, the IC50 at 3 h in series [9] came out at 160 µM.

Values taken from patent publication US6362181B1, “Isoquinolones” (Warner-Lambert Company, priority 1996, dated 2002).
